In the OligoGym collection:
After the bases stand the sugars from the 5' end (letter, count) and the backbone: PS all phosphorothioate, else s phosphorothioate and o phosphodiester by linkage. Methylation of C is not given here. l = locked nucleic acid (LNA); d = 2'-deoxy (DNA)

Molecular target: SNHG14
Settings: ASO
[1] = Mouse Primary Neuronal Cell, 0.005 µM

With “TGTTTATACCCTTTCCA (sugars l3 d12 l2, PS)” the target mRNA inhibition (Human Neuronal Cell, 0.2 µM) was 35% and the target mRNA inhibition (Human Neuronal Cell, 1 µM) was 50%.

With “GTTTCCATCTACTATTAA (sugars l1 d11 l2 d1 l3, PS)” the target mRNA inhibition (Human Neuronal Cell, 7.5 µM) was 52%.

“TTCTGTATACACCATCCC (sugars l1 d12 l1 d2 l2, PS)” was tested, and the target mRNA inhibition (Human Neuronal Cell, 7.5 µM) was 53%.

In the case of “CAAGTTTCCTATATTCT (sugars l4 d11 l2, PS)”, the target mRNA inhibition (Human Neuronal Cell, 0.2 µM) is reported as 66% and the target mRNA inhibition (Human Neuronal Cell, 1 µM) is reported as 70%.

“TTTTTATACCTTTCTTTAAC (sugars l1 d12 l1 d2 l4, PS)” showed a target mRNA inhibition (Human Neuronal Cell, 7.5 µM) of 43%.

In the case of “CCATTTATTTCCATTTATTT (sugars ldldddddddddddllddll, PS)”, the target mRNA inhibition (Human Neuronal Cell, 7.5 µM) is reported as 52%.

Work on “TCTTTCCATTTATTTCCAT (sugars lddldldddddddldldll, PS)” yielded a target mRNA inhibition (Human Neuronal Cell, 7.5 µM) of 37%.

GCTTCATATTTCTCCA (sugars l2 d12 l2, PS) was tested, and the target mRNA inhibition (Human Neuronal Cell, 0.2 µM) was 57%.

“TTCCTCTGCTTATAACT (sugars l3 d12 l2, PS)” gave a target mRNA inhibition (Human Neuronal Cell, 0.2 µM) of 50% and a target mRNA inhibition (Human Neuronal Cell, 1 µM) of 61%.

In the case of AGCATCATATAAACCT (sugars l3 d10 l3, PS), the target mRNA inhibition (Human Neuronal Cell, 0.2 µM) is reported as 34% and the target mRNA inhibition (Human Neuronal Cell, 1 µM) is reported as 26%.

Work on “CCTACATCTCATACTTG (sugars l3 d12 l2, PS)” yielded a target mRNA inhibition [1] of 96.1%.

TACTATACTTTCCTCT (sugars l2 d10 l4, PS) gave a target mRNA inhibition (Human Neuronal Cell, 0.2 µM) of 59% and a target mRNA inhibition (Human Neuronal Cell, 1 µM) of 60%.

“TTATAGCCATTCTATCT (sugars lddlddddddddlldll, PS)” showed a target mRNA inhibition (Human Neuronal Cell, 7.5 µM) of 25%.

Work on “AGCAACATTATTAACCAC (sugars l5 d7 l1 d3 l2, PS)” yielded a target mRNA inhibition (Human Neuronal Cell, 7.5 µM) of 47%.

In the case of “CTATTTAATTTACACTT (sugars l3 d11 l3, PS)”, the target mRNA inhibition (Human Neuronal Cell, 0.2 µM) is reported as 15% and the target mRNA inhibition (Human Neuronal Cell, 1 µM) is reported as 13%.

Work on “TACCTACATCTCATACTT (sugars l2 d14 l2, PS)” yielded a target mRNA inhibition (Human Neuronal Cell, 0.2 µM) of -10%, a target mRNA inhibition (Human Neuronal Cell, 1 µM) of 11% and a target mRNA inhibition (Human Neuronal Cell, 5 µM) of 6%.

In the case of “TTTATACCTTTCTTTAACCC (sugars l1 d15 l1 d1 l2, PS)”, the target mRNA inhibition (Human Neuronal Cell, 7.5 µM) is reported as 36%.

“CAACATTATTAACCACCTTA (sugars ldldldddddddddddldll, PS)” showed a target mRNA inhibition (Human Neuronal Cell, 7.5 µM) of 51%.

“GTTCTACTATACTTTCCT (sugars l1 d15 l2, PS)” was tested, and the target mRNA inhibition (Human Neuronal Cell, 7.5 µM) was -8%.

Work on “AGCTTTTAACCAGAGTG (sugars l2 d11 l4, PS)” yielded a target mRNA inhibition (Human Neuronal Cell, 7.5 µM) of 78%.

TTATTAACCACCTTAA (sugars l3 d10 l3, PS) was tested, and the target mRNA inhibition (Human Neuronal Cell, 0.2 µM) was 21% and the target mRNA inhibition (Human Neuronal Cell, 1 µM) was 49%.

In the case of ACCTACATCTCATACT (sugars l4 d10 l2, PS), the target mRNA inhibition (Human Neuronal Cell, 0.2 µM) is reported as 14%, the target mRNA inhibition (Human Neuronal Cell, 1 µM) is reported as -14% and the target mRNA inhibition (Human Neuronal Cell, 5 µM) is reported as 33%. The target mRNA inhibition [1] was 93.8%.

ATCTGCTACATATTCT (sugars l4 d10 l2, PS) was tested, and the target mRNA inhibition (Human Neuronal Cell, 0.2 µM) was 41% and the target mRNA inhibition (Human Neuronal Cell, 1 µM) was 61%.

In the case of “ACTGTTTATACCCTTTC (sugars l1 d11 l1 d1 l3, PS)”, the target mRNA inhibition (Human Neuronal Cell, 7.5 µM) is reported as 59%.

For ACAACTTCTATCATAC (sugars l3 d10 l3, PS), the target mRNA inhibition (Human Neuronal Cell, 0.2 µM) was 44% and the target mRNA inhibition (Human Neuronal Cell, 1 µM) was 55%.

“CCATTTATTTCCATTTAT (sugars l3 d12 l3, PS)” gave a target mRNA inhibition (Human Neuronal Cell, 0.2 µM) of 38% and a target mRNA inhibition (Human Neuronal Cell, 1 µM) of 59%.

Sequence “TGTCATCTAACTTCTTA (sugars l4 d11 l2, PS)” has a target mRNA inhibition (Human Neuronal Cell, 0.2 µM) of 45% and a target mRNA inhibition (Human Neuronal Cell, 1 µM) of 38%.

“AAATCTCAACTACCATTTTT (sugars ldllldddddddddddldll, PS)” was tested, and the target mRNA inhibition (Human Neuronal Cell, 7.5 µM) was 45%.

For “TTTATCAATATCTTCTCA (sugars lddlllddddddlddlll, PS)”, the target mRNA inhibition (Human Neuronal Cell, 7.5 µM) was 60%.

For “ACTGTTTATACCCTTTCC (sugars l1 d2 l1 d12 l2, PS)”, the target mRNA inhibition (Human Neuronal Cell, 7.5 µM) was 46%.

ATCATTCTCAACAATTA (sugars l4 d7 l6, PS) was tested, and the target mRNA inhibition (Human Neuronal Cell, 7.5 µM) was 17%.

“CTACATCTCATACTTGC (sugars l2 d13 l2, PS)” gave a target mRNA inhibition (Human Neuronal Cell, 0.2 µM) of -11%, a target mRNA inhibition (Human Neuronal Cell, 1 µM) of -20% and a target mRNA inhibition (Human Neuronal Cell, 5 µM) of 8%. The target mRNA inhibition [1] was 90.4%.

“CAGCTTTTAACCAGAGT (sugars l2 d12 l3, PS)” showed a target mRNA inhibition (Human Neuronal Cell, 7.5 µM) of 79%.

Sequence “GCACATTCTTTCTATACC (sugars l1 d12 l1 d2 l2, PS)” has a target mRNA inhibition (Human Neuronal Cell, 7.5 µM) of 47%.

With “ATATTGATTCAATTCCC (sugars lddllddddddlddlll, PS)” the target mRNA inhibition (Human Neuronal Cell, 7.5 µM) was 62%.

Sequence “CTCTCCTCAAGATCAAC (sugars l3 d11 l3, PS)” has a target mRNA inhibition (Human Neuronal Cell, 0.2 µM) of 23% and a target mRNA inhibition (Human Neuronal Cell, 1 µM) of 42%.

For “ATATTGATTCAATTCCC (sugars lldddddddddldldll, PS)”, the target mRNA inhibition (Human Neuronal Cell, 7.5 µM) was 60%.

Work on CTTTTAACCAGAGTGG (sugars l4 d9 l3, PS) yielded a target mRNA inhibition (Human Neuronal Cell, 7.5 µM) of 65%.

With CCACCTAAGACCTCAA (sugars l2 d10 l4, PS) the target mRNA inhibition (Human Neuronal Cell, 0.2 µM) was 53% and the target mRNA inhibition (Human Neuronal Cell, 1 µM) was 60%.

In the case of “TTTCCATTTATTTCCATTTA (sugars lddddldddddddddlddll, PS)”, the target mRNA inhibition (Human Neuronal Cell, 7.5 µM) is reported as 44%.

Sequence “CTTTCCATTTATTTCCATTT (sugars ldddddddddddddldldll, PS)” has a target mRNA inhibition (Human Neuronal Cell, 7.5 µM) of 47%.

For “TTTATACCTTTCTTTAACCC (sugars lddddddddddddldlddll, PS)”, the target mRNA inhibition (Human Neuronal Cell, 7.5 µM) was 52%.

In the case of CTTGACTACACATCTT (sugars l3 d10 l3, PS), the target mRNA inhibition (Human Neuronal Cell, 0.2 µM) is reported as 50% and the target mRNA inhibition (Human Neuronal Cell, 1 µM) is reported as 54%.
